Holding throughout (assay): inhibition of tumour cell growth, NCI panel, 48 h
The subject of test [1] is CAKI-1 renal.
Test [2] deals with COLO 205 colon.
The test system of test [3] is HCT-116 colon.
Test [4] concerns MCF7 breast.
The test system of test [5] is MDA-MB-435.
The test system of test [6] is NCI-H522 lung.
Test [7] relates to OVCAR-8 ovarian.
Test [8] concerns PC-3 prostate.
Test [9] has as its system SK-MEL-5 melanoma.
Test [10] has as its system SR leukemia.

SMILES strings stand for the structures.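 Growth conditions: 96-well plates. Treatment: test compound, 48 hours, 5 concentrations. Analysis: linear interpolation between bracketing concentrations; unreached endpoints set to highest concentration. The concentration for 50% growth inhibition is given as GI50. TGI denotes the concentration required for complete inhibition of growth.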

Regarding `O=C1NC(=S)S/C1=C\c1cn(-c2ccccc2)nc1-c1ccccc1`, the GI50 in test [1] was 7.14 µM; in [2] it was 21200 nM; in [3], 5620 nM; in test [4], 8310 nM; in test [5], 4.91 µM; in test [6], 2.96 µM. The GI50 was 11.4 µM in [7], 5.66 µM in test [8], 3190 nM in [9] and 7290 nM in [10]. Besides, the TGI in test [1] worked out at 51.8 µM; in test [2], 75.8 µM; in test [3] it was 21.3 µM; in test [4], 94.1 µM; in [5], 36.6 µM; in [6], 55.1 µM. Also, the TGI is greater than 100 µM in [7], greater than 100 µM in [8], 14.2 µM in test [9] and 49.7 µM in [10].
`CCCn1c2c(c3ccccc3c1=O)C(=O)c1ccccc1-2`: the TGI was greater than 100 µM in test [1]; greater than 100 µM in test [2]; greater than 100 µM in test [3]; greater than 100 µM in test [4]; greater than 100 µM in [5]; 39.6 µM in test [6]. Further, the TGI in test [7], in test [8], in [9] and in [10] was greater than 100 µM in each case.
Consider `CCN(CC)c1ccc(/C=C/C(=O)c2ccc(Nc3nc(Nc4ccccc4)nc(Nc4ccccc4)n3)cc2)cc1`, for which the GI50 in test [1] was 5.17 µM; in test [2] it was 1170 nM; in test [3] it was 2470 nM; in test [4] it was 1990 nM; in test [5] it was 9.26 µM; in test [6], 5.94 µM. The GI50 is 9.95 µM in [7], 3.2 µM in test [8], 1170 nM in test [9] and 1030 nM in [10]. The TGI was 38 µM in test [1]; 21.9 µM in [2]; greater than 100 µM in test [3]; 21.8 µM in test [4]; greater than 100 µM in [5]; greater than 100 µM in test [6]. Further, the TGI was greater than 100 µM in [7], 18.6 µM in test [8], 44.9 µM in test [9] and 3.86 µM in [10].
`N#CCn1c(=O)c(Oc2ccc(F)cc2F)cc2cnc(NC3CCOCC3)nc21`: the GI50 in test [1] is greater than 25 µM; in test [2], greater than 25000 nM; in test [3] it was greater than 25000 nM; in test [4], greater than 25000 nM; in test [5], greater than 25 µM; in test [6], 15 µM. The GI50 in [7] was greater than 25 µM; in test [8], greater than 25 µM; in test [9], greater than 25000 nM; in test [10] it was greater than 25000 nM. Besides, the TGI in [1], in [2], in [3], in test [4], in test [5] and in test [6] was greater than 25 µM throughout. Also, the TGI in test [7], in test [8], in test [9] and in test [10] was greater than 25 µM each time.
As to `COc1cc2oc(-c3cccc(C(=O)Nc4ccc(Cl)cc4)c3)cc(=O)c2c(OC)c1OC`, the GI50 was 1.79 µM in test [1]; 1470 nM in [2]; 1900 nM in test [3]; 2940 nM in [4]; 3.15 µM in [5]; 1.73 µM in test [6]. For the same compound, the GI50 was 3.44 µM in test [7], 3.4 µM in test [8], 1280 nM in test [9] and 493 nM in [10]. Moreover, the TGI in test [1] was 7.84 µM; in [2] it was 4.04 µM; in test [3] it was greater than 100 µM; in test [4], greater than 100 µM; in [5] it was greater than 100 µM; in test [6] it was greater than 100 µM. For the same compound, the TGI is greater than 100 µM in [7], greater than 100 µM in test [8], 2.68 µM in [9] and greater than 100 µM in [10].
Take `CN1CCN(CC(=O)N(C)c2ccc(N=C(c3ccccc3)c3c(O)[nH]c4ccc(C#N)cc34)cc2)CC1`: the GI50 was 1.26 µM in [1]; 528 nM in test [2]; 1020 nM in [3]; 451 nM in test [4]; 1.66 µM in [5]; 5.29 µM in test [6]. Besides, the GI50 in test [7] was 4.87 µM; in test [8], 2.37 µM; in [9] it was 1590 nM; in [10], 721 nM. Moreover, the TGI in test [1] is 8.96 µM; in test [2], 12.4 µM; in [3], 2.47 µM; in test [4] it was 13.7 µM; in [5] it was 4.04 µM; in test [6], 22.4 µM. Further, the TGI in test [7] is greater than 100 µM; in test [8] it was 17 µM; in test [9], 3.16 µM; in test [10], 5.62 µM.
